{
  "source": "patent US20130137757A1",
  "about": "(priority 2010, published 2013)",
  "key": {"[1]": {"system": "influenza viruses A/Memphis/1/71 (H3N2 type) strain", "assay": "hemagglutination inhibition test", "format": "cell-based, influenza virus", "settings": "guinea pig red blood cell suspensions, A/Memphis/1/71 (H3N2) strain, in PBS"}, "[2]": {"system": "influenza viruses A/PR/8/34 (H1N1 type) strain", "assay": "hemagglutination inhibition test", "format": "cell-based, influenza virus", "settings": "guinea pig red blood cell suspensions, A/PR/8/34 (H1N1) strain, in PBS"}},
  "data": [
    {"substance": "deoxyribonucleic acid [DNA]", "values": [
      {"measurement": "hemagglutination (visual and microscopic observation)", "setting": "[1]", "result": "strong hemagglutination was observed"},
      {"measurement": "hemagglutination (visual and microscopic observation)", "setting": "[2]", "result": "strong hemagglutination was observed"}
    ]}
  ]
}
